Assays:
Assay in all cases: KINOMEscan
Format in all cases: binding
MEK1 = MEK1 (Homo sapiens (Human), UniProt Q02750); conditions: read-out: percent of control
Method: (§1) In vitro profiling of Compound I-2 (1 μM) was performed using the DiscoveRx KINOMEscan® platform.

SRC = SRC (Homo sapiens (Human), UniProt P12931); conditions: read-out: percent of control
Method: as §1

NEK1 = NEK1 (Homo sapiens (Human), UniProt Q96PY6); conditions: read-out: percent of control
Method: as §1

PLK1 = PLK1 (Homo sapiens (Human), UniProt P53350); conditions: read-out: percent of control
Method: as §1

ALK = ALK (Homo sapiens (Human), UniProt Q9UM73); conditions: read-out: percent of control
Method: as §1

AURKB = AURKB (Homo sapiens (Human), UniProt Q96GD4); conditions: read-out: percent of control
Method: as §1

ERK5 = ERK5 (Homo sapiens (Human), UniProt Q13164); conditions: read-out: percent of control
Method: as §1

PIP5K2C = PIP5K2C (Homo sapiens (Human), UniProt Q8TBX8); conditions: read-out: percent of control
Method: as §1

LIMK1 = LIMK1 (Homo sapiens (Human), UniProt P53667); conditions: read-out: percent of control
Method: as §1

ERK1 = ERK1 (Homo sapiens (Human), UniProt P27361); conditions: read-out: percent of control
Method: as §1

PYK2 = PYK2 (Homo sapiens (Human), UniProt Q14289); conditions: read-out: percent of control
Method: as §1

[1] = biological target: ABL1(T315I)-nonphosphorylated (Homo sapiens (Human), UniProt P00519, T315I); conditions: read-out: percent of control
Method: as §1

TAOK2 = TAOK2 (Homo sapiens (Human), UniProt Q9UL54); conditions: read-out: percent of control
Method: as §1

LZK = LZK (Homo sapiens (Human), UniProt O43283); conditions: read-out: percent of control
Method: as §1

AKT1 = AKT1 (Homo sapiens (Human), UniProt P31749); conditions: read-out: percent of control
Method: as §1

MYO3A = MYO3A (Homo sapiens (Human), UniProt Q8NEV4); conditions: read-out: percent of control
Method: as §1

PKAC-alpha = PKAC-alpha (Homo sapiens (Human), UniProt P17612); conditions: read-out: percent of control
Method: as §1

DYRK2 = DYRK2 (Homo sapiens (Human), UniProt Q92630); conditions: read-out: percent of control
Method: as §1

FLT3 (ITD) = conditions: 1 μM
Method: as §1

AMPK-alpha1 = AMPK-alpha1 (Homo sapiens (Human), UniProt Q13131); conditions: read-out: percent of control
Method: as §1

[2] = biological target: TYK2(JH1domain-catalytic) (Homo sapiens (Human), UniProt P29597); conditions: read-out: percent of control
Method: as §1

CSNK1D = CSNK1D (Homo sapiens (Human), UniProt P48730); conditions: read-out: percent of control
Method: as §1

HPK1 = HPK1 (Homo sapiens (Human), UniProt Q92918); conditions: read-out: percent of control
Method: as §1

INSR = INSR (Homo sapiens (Human), UniProt P06213); conditions: read-out: percent of control
Method: as §1

ACVR1 = ACVR1 (Homo sapiens (Human), UniProt Q04771); conditions: read-out: percent of control
Method: as §1

p38-gamma = p38-gamma (Homo sapiens (Human), UniProt P53778); conditions: read-out: percent of control
Method: as §1

PAK6 = PAK6 (Homo sapiens (Human), UniProt Q9NQU5); conditions: read-out: percent of control
Method: as §1

HIPK3 = HIPK3 (Homo sapiens (Human), UniProt Q9H422); conditions: read-out: percent of control
Method: as §1

PIK3CB = PIK3CB (Homo sapiens (Human), UniProt P42338); conditions: read-out: percent of control
Method: as §1

BMX = BMX (Homo sapiens (Human), UniProt P51813); conditions: read-out: percent of control
Method: as §1

NEK10 = NEK10 (Homo sapiens (Human), UniProt Q6ZWH5); conditions: read-out: percent of control
Method: as §1

BRAF(V600E) = BRAF(V600E) (Homo sapiens (Human), UniProt P15056, V600E); conditions: read-out: percent of control
Method: as §1

[3] = biological target: RPS6KA5 (Kin.Dom.1-N-terminal) (Homo sapiens (Human), UniProt O75582); conditions: read-out: percent of control
Method: as §1

CSNK1A1 = CSNK1A1 (Homo sapiens (Human), UniProt P48729); conditions: read-out: percent of control
Method: as §1

[4] = biological target: RPS6KA5 (Kin.Dom.2-C-terminal) (Homo sapiens (Human), UniProt O75582); conditions: read-out: percent of control
Method: as §1

BUB1 = BUB1 (Homo sapiens (Human), UniProt O43683); conditions: read-out: percent of control
Method: as §1

WNK4 = WNK4 (Homo sapiens (Human), UniProt Q96J92); conditions: read-out: percent of control
Method: as §1

IKK-beta = IKK-beta (Homo sapiens (Human), UniProt O14920); conditions: read-out: percent of control
Method: as §1

TRKA = TRKA (Homo sapiens (Human), UniProt P04629); conditions: read-out: percent of control
Method: as §1

Chain of ERK1 (P27361 whole entry): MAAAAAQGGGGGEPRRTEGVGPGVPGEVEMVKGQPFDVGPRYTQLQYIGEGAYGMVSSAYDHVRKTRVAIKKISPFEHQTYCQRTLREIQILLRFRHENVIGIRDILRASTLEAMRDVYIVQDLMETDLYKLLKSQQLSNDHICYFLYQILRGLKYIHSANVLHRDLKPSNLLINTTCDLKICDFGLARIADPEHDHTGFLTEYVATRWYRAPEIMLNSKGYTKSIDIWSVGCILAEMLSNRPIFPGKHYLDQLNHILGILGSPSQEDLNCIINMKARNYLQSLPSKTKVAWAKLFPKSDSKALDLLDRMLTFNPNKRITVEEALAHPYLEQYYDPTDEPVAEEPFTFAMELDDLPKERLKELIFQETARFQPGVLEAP
Chain of WNK4 (Q96J92 whole entry): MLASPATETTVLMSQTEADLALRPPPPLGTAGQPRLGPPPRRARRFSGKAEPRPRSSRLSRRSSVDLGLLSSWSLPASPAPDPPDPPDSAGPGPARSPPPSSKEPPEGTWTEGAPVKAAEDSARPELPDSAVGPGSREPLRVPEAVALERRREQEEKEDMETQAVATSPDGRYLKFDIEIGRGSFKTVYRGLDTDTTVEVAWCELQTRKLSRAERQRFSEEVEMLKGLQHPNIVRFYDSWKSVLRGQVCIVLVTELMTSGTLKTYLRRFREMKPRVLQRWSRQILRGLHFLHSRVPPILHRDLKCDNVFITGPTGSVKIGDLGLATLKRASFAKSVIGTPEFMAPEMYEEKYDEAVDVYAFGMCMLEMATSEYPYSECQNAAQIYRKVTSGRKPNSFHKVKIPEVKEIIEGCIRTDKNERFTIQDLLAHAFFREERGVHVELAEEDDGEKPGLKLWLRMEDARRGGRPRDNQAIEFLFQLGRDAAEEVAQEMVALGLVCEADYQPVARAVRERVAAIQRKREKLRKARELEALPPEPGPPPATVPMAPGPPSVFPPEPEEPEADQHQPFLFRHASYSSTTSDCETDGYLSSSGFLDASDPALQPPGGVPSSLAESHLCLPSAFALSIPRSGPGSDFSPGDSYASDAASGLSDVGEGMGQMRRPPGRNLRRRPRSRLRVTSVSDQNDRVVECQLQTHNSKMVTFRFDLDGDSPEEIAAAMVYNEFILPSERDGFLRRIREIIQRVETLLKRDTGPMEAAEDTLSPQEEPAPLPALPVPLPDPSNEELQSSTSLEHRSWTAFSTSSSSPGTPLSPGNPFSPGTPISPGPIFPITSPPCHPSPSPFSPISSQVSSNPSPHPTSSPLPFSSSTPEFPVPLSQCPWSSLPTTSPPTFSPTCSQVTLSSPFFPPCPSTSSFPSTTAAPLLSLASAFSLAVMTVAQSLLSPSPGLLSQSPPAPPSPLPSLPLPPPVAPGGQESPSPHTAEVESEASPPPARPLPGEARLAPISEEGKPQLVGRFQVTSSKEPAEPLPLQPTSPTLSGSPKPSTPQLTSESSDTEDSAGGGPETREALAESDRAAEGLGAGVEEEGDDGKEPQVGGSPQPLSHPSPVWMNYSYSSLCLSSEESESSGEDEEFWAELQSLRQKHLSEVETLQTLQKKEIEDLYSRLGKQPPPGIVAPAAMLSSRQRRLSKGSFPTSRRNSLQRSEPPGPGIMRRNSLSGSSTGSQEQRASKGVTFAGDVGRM
Chain of ALK (Q9UM73 19-1620): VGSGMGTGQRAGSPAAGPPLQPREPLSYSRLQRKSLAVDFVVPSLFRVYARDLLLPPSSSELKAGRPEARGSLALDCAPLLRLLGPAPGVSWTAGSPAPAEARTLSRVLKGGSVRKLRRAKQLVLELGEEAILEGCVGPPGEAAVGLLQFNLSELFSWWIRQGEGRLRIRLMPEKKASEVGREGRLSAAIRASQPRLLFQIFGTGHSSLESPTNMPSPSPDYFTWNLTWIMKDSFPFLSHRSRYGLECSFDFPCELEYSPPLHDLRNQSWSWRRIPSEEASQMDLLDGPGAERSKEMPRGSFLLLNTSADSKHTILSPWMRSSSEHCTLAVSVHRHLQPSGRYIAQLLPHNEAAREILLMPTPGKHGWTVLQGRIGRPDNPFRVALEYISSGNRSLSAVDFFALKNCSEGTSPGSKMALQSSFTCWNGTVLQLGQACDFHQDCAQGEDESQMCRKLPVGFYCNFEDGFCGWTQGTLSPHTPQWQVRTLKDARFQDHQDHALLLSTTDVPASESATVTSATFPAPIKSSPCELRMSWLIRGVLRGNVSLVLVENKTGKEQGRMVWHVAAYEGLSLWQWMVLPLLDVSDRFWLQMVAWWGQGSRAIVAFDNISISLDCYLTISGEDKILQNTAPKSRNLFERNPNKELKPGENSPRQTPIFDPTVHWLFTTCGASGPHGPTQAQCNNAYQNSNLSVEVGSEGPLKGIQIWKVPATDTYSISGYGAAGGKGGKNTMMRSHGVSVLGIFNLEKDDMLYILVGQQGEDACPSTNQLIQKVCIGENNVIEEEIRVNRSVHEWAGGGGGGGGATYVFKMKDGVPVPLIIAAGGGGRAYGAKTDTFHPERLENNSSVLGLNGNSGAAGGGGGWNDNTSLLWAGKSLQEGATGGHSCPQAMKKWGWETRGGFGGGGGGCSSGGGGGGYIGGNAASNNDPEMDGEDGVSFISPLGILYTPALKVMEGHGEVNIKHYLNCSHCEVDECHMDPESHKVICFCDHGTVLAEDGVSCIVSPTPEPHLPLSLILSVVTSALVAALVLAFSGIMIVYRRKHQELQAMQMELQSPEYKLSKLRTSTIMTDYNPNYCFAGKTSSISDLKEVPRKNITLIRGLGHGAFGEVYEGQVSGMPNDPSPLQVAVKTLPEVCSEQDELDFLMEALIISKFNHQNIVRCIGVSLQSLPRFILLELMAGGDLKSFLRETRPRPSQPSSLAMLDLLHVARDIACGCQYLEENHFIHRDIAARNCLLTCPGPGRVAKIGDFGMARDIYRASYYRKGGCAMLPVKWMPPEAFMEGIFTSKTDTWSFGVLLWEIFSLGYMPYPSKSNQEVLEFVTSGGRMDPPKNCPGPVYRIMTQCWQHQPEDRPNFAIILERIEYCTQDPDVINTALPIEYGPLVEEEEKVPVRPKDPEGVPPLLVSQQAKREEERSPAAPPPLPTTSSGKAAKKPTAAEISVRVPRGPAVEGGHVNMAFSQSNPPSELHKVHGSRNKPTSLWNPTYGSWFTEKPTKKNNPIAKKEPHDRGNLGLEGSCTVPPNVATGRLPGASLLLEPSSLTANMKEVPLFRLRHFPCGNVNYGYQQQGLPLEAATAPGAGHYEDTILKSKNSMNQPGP
Chain of BUB1 (O43683 whole entry): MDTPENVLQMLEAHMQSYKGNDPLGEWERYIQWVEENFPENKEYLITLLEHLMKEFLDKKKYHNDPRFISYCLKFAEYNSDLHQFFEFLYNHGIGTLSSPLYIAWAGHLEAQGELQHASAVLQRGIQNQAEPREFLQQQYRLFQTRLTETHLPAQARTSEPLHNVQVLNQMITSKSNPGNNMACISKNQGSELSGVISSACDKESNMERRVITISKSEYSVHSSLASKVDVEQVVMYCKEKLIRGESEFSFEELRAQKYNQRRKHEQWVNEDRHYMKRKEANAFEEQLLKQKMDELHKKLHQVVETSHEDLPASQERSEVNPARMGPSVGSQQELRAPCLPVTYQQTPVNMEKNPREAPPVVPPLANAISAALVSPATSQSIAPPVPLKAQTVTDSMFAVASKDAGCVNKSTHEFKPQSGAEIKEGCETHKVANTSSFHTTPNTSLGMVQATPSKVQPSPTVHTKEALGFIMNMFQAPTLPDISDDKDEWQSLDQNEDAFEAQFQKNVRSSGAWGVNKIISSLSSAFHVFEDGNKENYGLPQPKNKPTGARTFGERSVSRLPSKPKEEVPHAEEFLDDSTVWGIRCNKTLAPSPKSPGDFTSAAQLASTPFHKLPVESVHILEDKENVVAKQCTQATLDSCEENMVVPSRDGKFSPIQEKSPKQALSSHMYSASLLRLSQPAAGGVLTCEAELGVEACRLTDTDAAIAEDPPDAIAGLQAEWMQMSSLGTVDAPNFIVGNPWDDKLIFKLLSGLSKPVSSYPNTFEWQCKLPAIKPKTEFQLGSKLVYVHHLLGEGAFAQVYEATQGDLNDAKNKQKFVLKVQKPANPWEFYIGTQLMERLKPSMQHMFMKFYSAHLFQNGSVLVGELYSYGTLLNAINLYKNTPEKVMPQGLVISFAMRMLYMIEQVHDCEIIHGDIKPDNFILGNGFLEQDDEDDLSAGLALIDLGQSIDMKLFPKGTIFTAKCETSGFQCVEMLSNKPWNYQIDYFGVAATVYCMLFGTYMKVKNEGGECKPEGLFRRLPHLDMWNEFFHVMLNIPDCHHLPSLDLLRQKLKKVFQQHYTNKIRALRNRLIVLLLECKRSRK
Chain of DYRK2 (Q92630 whole entry): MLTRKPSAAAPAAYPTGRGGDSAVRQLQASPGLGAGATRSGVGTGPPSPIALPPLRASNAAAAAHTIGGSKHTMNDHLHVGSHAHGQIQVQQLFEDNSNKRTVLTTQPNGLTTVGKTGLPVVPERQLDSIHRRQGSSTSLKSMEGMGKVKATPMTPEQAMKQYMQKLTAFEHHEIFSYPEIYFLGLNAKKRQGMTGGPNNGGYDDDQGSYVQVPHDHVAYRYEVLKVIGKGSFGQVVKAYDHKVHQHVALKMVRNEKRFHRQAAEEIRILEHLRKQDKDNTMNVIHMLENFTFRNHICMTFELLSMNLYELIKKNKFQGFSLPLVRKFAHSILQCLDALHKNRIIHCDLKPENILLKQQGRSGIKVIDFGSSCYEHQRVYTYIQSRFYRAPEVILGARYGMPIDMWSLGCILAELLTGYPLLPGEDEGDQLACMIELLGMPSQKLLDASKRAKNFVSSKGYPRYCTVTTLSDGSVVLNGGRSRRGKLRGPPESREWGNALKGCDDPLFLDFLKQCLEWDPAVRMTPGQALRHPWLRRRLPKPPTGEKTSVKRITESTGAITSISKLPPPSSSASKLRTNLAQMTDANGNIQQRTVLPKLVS

Row | SMILES | remaining binding at 1 µM (MEK1) [%] | remaining binding at 1 µM (SRC) [%] | remaining binding at 1 µM (NEK1) [%] | remaining binding at 1 µM (PLK1) [%] | remaining binding at 1 µM (ALK) [%] | remaining binding at 1 µM (AURKB) [%] | remaining binding at 1 µM (ERK5) [%] | remaining binding at 1 µM (PIP5K2C) [%] | remaining binding at 1 µM (LIMK1) [%] | remaining binding at 1 µM (ERK1) [%] | remaining binding at 1 µM (PYK2) [%] | remaining binding at 1 µM [1] [%] | remaining binding at 1 µM (TAOK2) [%] | remaining binding at 1 µM (LZK) [%] | remaining binding at 1 µM (AKT1) [%] | remaining binding at 1 µM (MYO3A) [%] | remaining binding at 1 µM (PKAC-alpha) [%] | remaining binding at 1 µM (DYRK2) [%] | percent of control (FLT3 (ITD)) [%] | remaining binding at 1 µM (AMPK-alpha1) [%] | other results
1 | CCN1CCN(Cc2cc(NC(=O)c3ccc(C)c(-c4ccc5nc(NC(=O)C6CC6)cn5n4)c3)cc(C(F)(F)F)c2)CC1 [Compound I-2, 3-(2-(cyclopropanecarboxamido)imidazo[1,2-b]pyridazin-6-yl)-N-(3-((4-ethylpiperazin-1-yl)methyl)-5-(trifluoromethyl)phenyl)-4-methylbenzamide] | 92 | 0 | 95 | 98 | 8.7 | 97 | 95 | 5.7 | 87 | 95 | 3.2 | 0 | 8.6 | 48 | 90 | 85 | 75 | 95 | 1.6 | 99 | remaining binding at 1 µM [2]: 54%; remaining binding at 1 µM (CSNK1D): 100%; remaining binding at 1 µM (HPK1): 0.1%; remaining binding at 1 µM (INSR): 0.85%; remaining binding at 1 µM (ACVR1): 100%; remaining binding at 1 µM (p38-gamma): 0%; remaining binding at 1 µM (PAK6): 95%; remaining binding at 1 µM (HIPK3): 56%; remaining binding at 1 µM (PIK3CB): 100%; remaining binding at 1 µM (BMX): 65%; remaining binding at 1 µM (NEK10): 75%; remaining binding at 1 µM (BRAF(V600E)): 1.7%; remaining binding at 1 µM [3]: 73%; remaining binding at 1 µM (CSNK1A1): 73%; remaining binding at 1 µM [4]: 100%; remaining binding at 1 µM (BUB1): 100%; remaining binding at 1 µM (WNK4): 75%; remaining binding at 1 µM (IKK-beta): 50%; remaining binding at 1 µM (TRKA): 0.75%
2 | CCN1CCN(Cc2cc(NC(=O)c3ccc(C)c(-c4ccc5nc(NC(=O)C6CC6)cn5c4)c3)cc(C(F)(F)F)c2)CC1 [Compound I-6, 3-(2-(cyclopropanecarboxamido)imidazo[1,2-a]pyridin-6-yl)-N-(3-((4-ethylpiperazin-1-yl)methyl)-5-(trifluoromethyl)phenyl)-4-methylbenzamide] | 94 | 0 | 97 | 100 | 16 | 80 | 92 | 46 | 96 | 100 | 4.1 | 0 | 7.6 | 100 | 90 | 66 | 97 | 92 | 1.4 | 90 | remaining binding at 1 µM [2]: 41%; remaining binding at 1 µM (CSNK1D): 100%; remaining binding at 1 µM (HPK1): 0.75%; remaining binding at 1 µM (INSR): 3.2%; remaining binding at 1 µM (ACVR1): 100%; remaining binding at 1 µM (p38-gamma): 9.4%; remaining binding at 1 µM (PAK6): 97%; remaining binding at 1 µM (HIPK3): 98%; remaining binding at 1 µM (PIK3CB): 94%; remaining binding at 1 µM (BMX): 42%; remaining binding at 1 µM (NEK10): 62%; remaining binding at 1 µM (BRAF(V600E)): 5.9%; remaining binding at 1 µM [3]: 66%; remaining binding at 1 µM (CSNK1A1): 100%; remaining binding at 1 µM [4]: 98%; remaining binding at 1 µM (BUB1): 97%; remaining binding at 1 µM (WNK4): 100%; remaining binding at 1 µM (IKK-beta): 80%; remaining binding at 1 µM (TRKA): 0%
